Measurements taken from patent publication US20230286973A1, “PROTEIN SECRETION INHIBITORS” (KEZAR LIFE SCIENCES, priority 2020, published 2023).

What was measured:
[1] = test system: HER3-ss+4aa/Gaussia Luciferase; assay: Dox-Induced Her3-ss-Gluc Assay; type: cell-based; details: 24 hr Dox induction; 293FRT/TO cells; read-out: 24 hr Dox Inducible Her3(ss + 4)Gluc 293FRT/TO: Mean IC50
Excerpt: Flp-In 293 T-REx™ cells were transfected with pcDNA™5/FRT/TO plasmid inserted with cDNA encoding Gaussia Luciferase fused to the 3′ end of cDNA encoding HER3 signal sequence plus 4 amino acids (N-[…]-C) (SEQ ID NO: 2). Transfected cells were selected for resistance to the selectable markers Hygromycin and Blasticidin to create a stable cell line that contained the HER3-ss+4aa/Gaussia Luciferase cDNA insert whose expression was regulated under the T-REx™ system. The day before assay, cells were trypsinized and plated in 384-well tissue culture plates. The next day, compound dilutions in DMSO/media containing doxycycline were added to the wells and incubated at 37° C., 5% CO2.
For chemical structures that include one or more stereoisomers, but are illustrated without indicating stereochemistry, the assay data refers to a mixture of stereoisomers.

[2] = test system: TNFα-FL/Gaussia Luciferase; assay: Dox Induced TNFα-FL-Gluc Assay; type: cell-based; details: for IC50: 24 hr Dox induction, 293FRT/TO cells, read-out: 24 hr Dox Inducible TNFaFLGluc 293FRT/TO: Mean IC50; for 24 hr Dox Inducible TNFaFLGluc 293FRT/TO: TNF/PD1: ratio of TNFaFLGluc IC50 to PD1ssGluc IC50
Outline: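 Flp-In 293 T-REx cells stably expressing full-length TNFα (aa 1-233) fused at its C-terminus to Gaussia luciferase under tetracycline-regulated control were plated the day before assay. Compound dilutions in DMSO/media containing doxycycline were added and incubated at 37 °C, 5% CO2. Unspecified stereochemistry denotes stereoisomer mixtures.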

[3] = test system: PD1-ss+10aa/Gaussia Luciferase; assay: Dox-Induced PD1-ss-Gluc Assay; type: cell-based; details: 24 hr Dox induction; 293FRT/TO cells; read-out: 24 hr Dox Inducible PD1ssGluc 293FRT/TO: Mean IC50
Outline: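 Stable Flp-In 293 T-REx cells carried a doxycycline-inducible construct of Gaussia luciferase fused to the PD1 signal sequence plus 10 amino acids. Cells were plated the day before, then treated with compound dilutions in DMSO/media containing doxycycline at 37 °C, 5% CO2.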

[4] = Liver Microsome Stability Assay (mouse); details: mouse liver microsomes, with NADPH, 1.0 uM compound
Description: (§1) Stability of a compound was assessed in the presence of liver microsomes from various sources—mouse, rat, monkey and human liver microsomes. 1.0 uM compound, 0.4% DMSO in 0.1 M Potassium Phosphate with 1.0 mg/mL liver microsomes, were incubated at 37° C. with or without 1 mM NADPH. The samples were quenched at 0, and 30 minutes.

[5] = test system: multiple myeloma cell line NCI-H929; assay: H929 Cell Viability Assay; type: cell-based, human; details: Homo sapiens, NCI-H929, 48 h, NCI-H929 cells, Celltiter-Glo
Outline: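 NCI-H929 cells, resuspended in RPMI 1640 with 10% FBS and 2 mM glutamine, were treated with compound dilutions in DMSO/media and incubated 48 hours at 37° C, 5% CO2. Viability was read by CellTiter-Glo luminescence. Compounds drawn without stereochemistry were tested as stereoisomer mixtures.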

[6] = Liver Microsome Stability Assay (monkey); details: monkey liver microsomes, with NADPH, 1.0 uM compound
Description: as §1

[7] = Liver Microsome Stability Assay (rat); details: rat liver microsomes, with NADPH, 1.0 uM compound
Description: as §1

[8] = Liver Microsome Stability Assay (human); details: human liver microsomes, with NADPH, 1.0 uM compound
Description: as §1

[9] = test system: multiple myeloma cell line U266B1; assay: U266 Cell Viability Assay; type: cell-based, human; details: Homo sapiens, U-266, 48 h, U266B1 cells, Celltiter-Glo
Outline: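 Cells grown in RPMI 1640 with 10% FBS, 2 mM glutamine and penicillin/streptomycin were exposed to compound dilutions in DMSO/media for 48 hours at 37° C., 5% CO2. Viability was read by CellTiter-Glo luminescence. Undefined stereocentres mean data for stereoisomer mixtures.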

[10] = test system: IL-2-FL/Gaussia Luciferase; assay: Dox Induced IL2-FL-Gluc Assay; type: cell-based; details: for IC50: 24 hr Dox induction, 293FRT/TO cells, read-out: 24 hr Dox Inducible IL2FLGluc 293FRT/TO: Mean IC50; for 24 hr Dox Inducible IL2FLGluc 293FRT/TO: IL2/PD1: ratio of IL2FLGluc IC50 to PD1ssGluc IC50
Outline: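 Flp-In 293 T-REx cells stably carrying doxycycline-inducible full-length IL-2 (aa 1-153) fused at its C-terminus to Gaussia luciferase, selected with hygromycin and blasticidin. Cells were plated the day before, then treated with compounds in DMSO/media containing doxycycline at 37° C, 5% CO2.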

Structure (SMILES)	IC50 [1]	IC50 [2]	24 hr Dox Inducible TNFaFLGluc 293FRT/TO: TNF/PD1 [2]	IC50 [3]	Liver Microsome Stability (Multiple Species): Mouse - % Remaining after 30 min w/NADPH [4]	EC50 [5]	Liver Microsome Stability (Multiple Species): Monkey - % Remaining after 30 min w/NADPH [6]	Liver Microsome Stability (Multiple Species): Rat - % Remaining after 30 min w/NADPH [7]	Liver Microsome Stability (Multiple Species): Human - % Remaining after 30 min w/NADPH [8]	EC50 [9]	IC50 [10]	24 hr Dox Inducible IL2FLGluc 293FRT/TO: IL2/PD1 [10]
CN(C)C(=O)c1ccc(N2CCC[C@@H]2c2csc(NC(=O)c3cccn3Cc3ccncc3)n2)cc1 [Compound A18, (R)-N-(4-(1-(4-(dimethylcarbamoyl)phenyl)pyrrolidin-2-yl)thiazol-2-yl)-1-(pyridin-4-ylmethyl)-1H-pyrrole-2-carboxamide]	109 nM	1020 nM	15.9	64.2 nM	3.75%	1580 nM	0.08%	0.17%	0.05%	> 25000 nM	145 nM	2.3
NC(=O)c1ccc(N2CCC[C@@H]2c2csc(NC(=O)c3cccn3Cc3ccncc3)n2)cc1 [Compound A19]	5.66 nM	45.3 nM	18.4	2.46 nM	3.24%	219 nM	0.17%	0.39%	0.48%	> 25000 nM	9.11 nM	3.7
Nc1ccc(N2CCC[C@@H]2c2csc(NC(=O)c3cccn3Cc3ccncc3)n2)cc1 [Compound A20]	40.3 nM	131 nM	8	16.4 nM	7.28%	340 nM	2.72%	26.3%	4.63%	4700 nM	39.6 nM	2.4
Cc1ccc(N2CCC[C@@H]2c2csc(NC(=O)c3cccn3Cc3ccncc3)n2)cc1 [Compound A21, (R)-1-(pyridin-4-ylmethyl)-N-(4-(1-(p-tolyl)pyrrolidin-2-yl)thiazol-2-yl)-1H-pyrrole-2-carboxamide]	2.61 nM	27.1 nM	30.4	0.89 nM	6.31%	54.1 nM	1.43%	11%	4.28%	> 25000 nM	3.87 nM	4.3
O=C(Nc1nc([C@H]2CCCN2c2ccc(F)cc2)cs1)c1cccn1Cc1ccncc1 [Compound A25, (R)-N-(4-(1-(4-fluorophenyl)pyrrolidin-2-yl)thiazol-2-yl)-1-(pyridin-4-ylmethyl)-1H-pyrrole-2-carboxamide]	20.7 nM	240 nM	24.2	9.92 nM	1.56%	412 nM	1.66%	1.84%	3.01%	16100 nM	17.5 nM	1.8
O=C(Nc1nc([C@H]2CCCN2c2ccc(Cl)cc2)cs1)c1cccn1Cc1ccncc1 [Compound A26, (R)-N-(4-(1-(4-chlorophenyl)pyrrolidin-2-yl)thiazol-2-yl)-1-(pyridin-4-ylmethyl)-1H-pyrrole-2-carboxamide]	9.38 nM	158 nM	50.2	3.15 nM	5.75%	136 nM	3.34%	8.78%	5.11%	1170 nM	6.78 nM	2.1
O=C(Nc1nc([C@H]2CCCN2c2ccc([N+](=O)[O-])cc2)cs1)c1cccn1Cc1ccncc1 [Compound A27, (R)-N-(4-(1-(4-nitrophenyl)pyrrolidin-2-yl)thiazol-2-yl)-1-(pyridin-4-ylmethyl)-1H-pyrrole-2-carboxamide]	109 nM	1100 nM	19.1	57.9 nM	6.54%	5790 nM	0.51%	0.33%	1.61%	> 25000 nM	144 nM	2.5
O=C(Nc1nc([C@H]2CCCN2c2ccc(C(F)(F)F)cc2)cs1)c1cccn1Cc1ccncc1 [Compound A28, (R)-1-(pyridin-4-ylmethyl)-N-(4-(1-(4-(trifluoromethyl)phenyl)pyrrolidin-2-yl)thiazol-2-yl)-1H-pyrrole-2-carboxamide]	11.6 nM	137 nM	23.9	5.73 nM	30.3%	251 nM	3.97%	51.5%	16.4%	10100 nM	10.8 nM	1.9
O=C(Nc1nc([C@H]2CCCN2c2cccnn2)cs1)c1cccn1Cc1ccncc1 [Compound A29, (R)-N-(4-(1-(pyridazin-3-yl)pyrrolidin-2-yl)thiazol-2-yl)-1-(pyridin-4-ylmethyl)-1H-pyrrole-2-carboxamide]	1130 nM	13100 nM	24.4	534 nM	1.4%	> 25000 nM	0.39%	4.6%	0.59%	> 25000 nM	2220 nM	4.1
NCc1ccc(N2CCC[C@@H]2c2csc(NC(=O)c3cccn3Cc3ccncc3)n2)cc1 [Compound A44, (R)-N-(4-(1-(4-(aminomethyl)phenyl)pyrrolidin-2-yl)thiazol-2-yl)-1-(pyridin-4-ylmethyl)-1H-pyrrole-2-carboxamide]	415 nM	3880 nM	23.3	167 nM	62.6%	3310 nM	26%	30%	28.6%	6950 nM	408 nM	2.4
